Measured values: patent US9618511B2, “Methods and compositions for treating alzheimer's disease” (Eleanore Bennett Charitable Trust #2, priority 2008, dated 2017)
Entries after “also recorded” stand apart in the source; their conditions may differ. Each block holds one molecule with its values, some of them ahead of it.

What was measured:
[1] = tested on: PDK-dependent activation of Akt1; assay: In vitro PDK-dependent Akt1 phosphorylation and activity assay (immunoprecipitated PDK1 and Akt1, GSK-3 fusion protein substrate); type: biochemical, human (SH-SY5Y, HEK293), mouse (C2C12); conditions: for effect on PDK-stimulated Akt activity / Akt phosphorylation: 10 μM; for relative effect of amyloid preparations (monomer, ADDL, fibril) on PDK-dependent Akt activation: comparison of preparations, SH-SY5Y-derived kinases
Method: Akt1 was immunoprecipitated (IP) overnight from 100 μg of the human brain sample or from C2C12 myotubes infected with adenovirus encoding Aβ using a 1:100 dilution of goat anti-Akt1 antibody. The following morning, 40 μl of a 50% slurry of protein G-Agarose (PGA) (Roche Applied Science) was added for an additional 1.5 hours. The beads were washed twice with wash buffer [1× phosphate buffered saline (PBS), 0.5% NP-40, 0.1 mM Na3VO4] and twice with kinase buffer [25 mM Tris (pH 7.5), 2 mM DTT, 0.1 mM Na3VO4, 10 mM MgCl2]. ATP (200 μM) and GSK-3 fusion protein (1 μg/50 μl) were added in the presence of kinase buffer, and the final reaction (50 μl) was incubated 30 minutes at 30° C. The reaction was stopped by adding 40 μl of Laemmli buffer. 20 μl of sample was loaded onto a 10% polyacrylamide gel for fractionation and western detection development.
Immunoprecipitates (IPs) of PDK1 and Akt were prepared from 100 μg of either SH-SY5Y, C2C12 myotubes or from insulin-treated cultures. ATP (200 μM), GSK-3 fusion protein (1 μg/50 μl) and kinase buffer were added to the reaction. Various Aβ peptides were finally added at 0.01, 0.1, 1, 5, 10, 20 μM. Akt activity level was otherwise determined as above.

[2] = target: T1, SGK (serum/glucocorticoid regulated kinase) activated by PDK (Mus musculus, UniProt Q9Z2A0); assay: PDK-stimulated SGK activity, in vitro kinase assay; type: biochemical; conditions: 10 μM
T1 construct: Stimulated PDK was IP from insulin-treated C2C12 myotubes; endogenous in cells; host or cells: PDK from insulin-treated C2C12 myotubes
T1 sequence (Q9Z2A0 1-559): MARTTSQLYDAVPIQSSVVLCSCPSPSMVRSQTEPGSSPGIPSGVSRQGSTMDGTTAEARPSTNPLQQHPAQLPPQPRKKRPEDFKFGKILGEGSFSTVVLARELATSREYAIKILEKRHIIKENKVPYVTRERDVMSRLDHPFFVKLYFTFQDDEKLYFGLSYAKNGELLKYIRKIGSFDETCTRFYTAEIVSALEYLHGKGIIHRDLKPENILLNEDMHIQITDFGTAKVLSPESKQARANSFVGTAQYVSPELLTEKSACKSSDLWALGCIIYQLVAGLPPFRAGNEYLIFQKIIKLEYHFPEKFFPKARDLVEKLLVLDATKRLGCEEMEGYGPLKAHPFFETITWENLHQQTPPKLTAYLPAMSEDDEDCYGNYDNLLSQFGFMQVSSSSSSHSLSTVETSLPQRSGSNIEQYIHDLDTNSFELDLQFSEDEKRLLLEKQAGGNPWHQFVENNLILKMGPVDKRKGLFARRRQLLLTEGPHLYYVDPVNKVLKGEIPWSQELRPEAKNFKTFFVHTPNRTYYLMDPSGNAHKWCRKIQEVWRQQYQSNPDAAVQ
Source text: Another kinase, termed SGK (serum/glucocorticoid regulated kinase), is also activated by PDK. Similar to Akt, SGK has a PH domain and phosphorylates GSK-3 α/β (Kobayashi, T., Deak, M., Morrice, N., and Cohen, P., 1999, Characterization of the structure and regulation of two novel isoforms of serum- and glucocorticoid-induced protein kinase, Biochem J 344 Pt 1:189-197, and Tessier, M., and Woodgett, J. R., 2006, Serum and glucocorticoid-regulated protein kinases: variations on a theme, J Cell Biochem 98:1391-1407). If Aβ inhibits PH-mediated activations of Akt independent of PIP3, it is predicted to affect this mechanism too. Indeed, in FIG. 7D, ADDL-containing Aβ preparations inhibited PDK-stimulated SGK activity (lane 7 vs. 6 and 5). […] This enhanced activity was not however, interrupted by Aβ (10 μM, lane 4 vs. 3). Lastly, another kinase that converges to phosphorylate GSK, PKA (Grimes, C. A., and Jope, R. S., 2001, The multifaceted roles of glycogen synthase kinase 3beta in cellular signaling, Prog Neurobiol 65:391-426; Li, M., Wang, X., Meintzer, M. K., Laessig, T., Birnbaum, M. J., and Heidenreich, K. A., 2000, Cyclic AMP promotes neuronal survival by phosphorylation of glycogen synthase kinase 3beta, Mol Cell Biol 20:9356-9363), was tested. […] Thus, the mechanism of Aβ inhibition of Akt activation is specific to PDK-like kinases. […]

[3] = tested on: C2C12 myotubes; assay: Extracellular peptide or insulin treatment of C2C12 myotubes, western blot of Akt signaling; type: cell-based, mouse
Method: The prior cell-based and in vitro experiments are relevant to […] Aβ effects. To determine the specificity of Akt inhibition by […] Aβ, C2C12 myotubes were cultured, and treated with extracellular Aβ25-35, Aβ35-25, Aβ1-42 and Aβ42-1 for 24 hours. In the last 30 minutes before harvest, insulin was added (0.1 μg/ml). While p-Akt (Ser473) and p-GSK-3 α/β levels were increased by insulin treatment (FIG. 9C, lane 2 vs. 1), they were not affected by any of the Aβ treatments. […] There were also no significant changes in p-Akt (Ser473) levels (data not shown). […] PDK itself is subject to phosphorylation (e.g., at Ser 241) and several authors feel that it is constitutively phosphorylated and thus ‘primed’ (Casamayor, A., Morrice, N. A., and Alessi, D. R., 1999, Phosphorylation of Ser-241 is essential for the activity of 3-phosphoinositide-dependent protein kinase-1: identification of five sites of phosphorylation in vivo, Biochem J 342 (Pt 2):287-292). The experiments described herein indicate that p-PDK levels are constitutively high in C2C12 cells and not boosted further by insulin action (FIG. 9E, top). p-PDK levels were not modulated by extracellular (FIG. 9E lower panel) or intracellular Aβ expression (not shown).
In FIG. 9C C2C12 myotubes were bath exposed to AP25-35, reverse AP35-25, AP1-42 and reverse Aβ42-1 peptides for 24 hours before treatment with insulin (0.1 μg/ml, 15 min) Whole cell extracts were subjected to Western analysis for p-Akt (Ser473) (Akt activation) and total Akt levels (top) as well as for endogenous levels of pGSK-3a/p, indicative of Akt activity, and total GSK-3β (lower two blots). […] The increase was not affected by pre-treatment with extracellular AR.
In FIG. 9D C2C12 myotube cultures were exposed to increasing doses of A[i1-42 (0, 10 and 25 μM) for 2 hours before treatment with insulin (0, 20, 100 and 500 ng/ml) for 15 min Harvested cell extracts were used for western blot for p-Akt (Thr308).

Molecule: CCCCCCCCCCCCCCCC(=O)OC[C@H](COP(=O)(O)OC1[C@H](O)[C@H](OP(=O)(O)O)C(OP(=O)(O)O)[C@H](OP(=O)(O)O)[C@H]1O)OC(=O)CCCCCCCCCCCCCCC (stereo partly shown) [PIP3, phosphatidylinositol-tris-3,4,5-phosphate, dipalmitoyl]
PDK-dependent Akt1 phosphorylation and activity ([1]; 50 nM added, PP2A-treated Akt): extra increase

PDK-stimulated SGK activity [2]: inhibited SGK activation
Molecule: ADDL: Aβ-derived diffusible ligands, oligomer-enriched Aβ42 preparation (24 to 48 hr at 4° C.)
effect on PDK-stimulated Akt activity (GSK-3 substrate phosphorylation) ([1]; 5 μM (or doses up to 5 μM)): greatest interference | effect on PDK-stimulated Akt activity / Akt phosphorylation [1]: nearly eliminates | effect on PDK-stimulated Akt activity / Akt phosphorylation ([1]; listed as ADDL preparations): near total inhibition | relative effect of amyloid preparations (monomer, ADDL, fibril) on PDK-dependent Akt activation [1]: more potent inhibitors | relative effect of amyloid preparations (monomer, ADDL, fibril) on PDK-dependent Akt activation ([1]; listed as ADDL-containing Aβ preparations): additively more injurious | relative effect of amyloid preparations (monomer, ADDL, fibril) on PDK-dependent Akt activation ([1]; listed as ADDLs): more toxic; also recorded: significantly prevented; also recorded: significantly greater inhibition

Molecule: Aβ25-35: fragment consisting of residues 25-35 of Aβ (GSNKGAIIGLM; Amyloid-beta protein 42; UniProt P05067 696-706, looked up, fragment)
p-Akt (Ser473) and p-GSK-3 α/β levels after insulin ([3]; extracellular peptide 24 hours, then insulin 0.1 μg/ml): not affected

Molecule: Fibrillar Aβ: fibrillar Aβ42 made in 10 mM HCl, 37° C., 24 hr
relative effect of amyloid preparations (monomer, ADDL, fibril) on PDK-dependent Akt activation ([1]; listed as fibril-containing preparations): little toxicity; also recorded: least active | relative effect of amyloid preparations (monomer, ADDL, fibril) on PDK-dependent Akt activation ([1]; listed as fibrillated preparations of Aβ): little effect

Molecule: Insulin: insulin used to stimulate the Akt pathway
levels of p-Akt (Ser473) and Akt activity (p-GSK-3 α/β) ([3]; 0.1 μg/ml, 15 min): significantly increased

Molecule: PTEN: Recombinant Phosphatase and Tensin Homolog, lipid phosphatase (R & D Systems)
PDK stimulation of Akt activity after preincubation of the kinase beads ([1]; preincubation 10.6 μg/ml, 15 min at 37° C., then washing): eliminated any stimulation of Akt activity
